Assay results: patent publication US20220162167A1, “SUBSTITUTED BICYCLIC AND TETRACYCLIC QUINONES AND USE THEREOF AS ANTI-CANCER AGENTS” (THE REGENTS OF THE UNIVERSITY OF MICHIGAN, priority 2019, published 2022)

Columns and labels:
Type in all cases: cell-based
HL-60(TB) = assay: NCI60 growth inhibition, HL-60(TB); conditions: Leukemia
Procedure: (§1) Representative compounds were tested in 60 cell lines (NCI60) at the National Cancer Institute, Developmental Therapeutics Program.
(§2) Representative compounds were tested in a panel of 60 cancer cells (NCI 60) at the National Cancer Institute. Growth inhibition are shown in table 2, table 3, table 4, table 5, and FIG. 1, FIG. 2, FIG. 3, FIG. 4, FIG. 5.

HS 578T = assay: NCI60 growth inhibition, HS 578T; conditions: Breast Cancer
Procedure: as §1, §2

NCI-H522 = assay: NCI60 growth inhibition, NCI-H522; conditions: Non-Small Cell Lung Cancer
Procedure: as §1, §2

MDA-MB-435 = assay: NCI60 growth inhibition, MDA-MB-435; conditions: Melanoma
Procedure: as §1, §2

TK-10 = assay: NCI60 growth inhibition, TK-10; conditions: Renal Cancer
Procedure: as §1, §2

OVCAR-5 = assay: NCI60 growth inhibition, OVCAR-5; conditions: Ovarian Cancer
Procedure: as §1, §2

KM12 = assay: NCI60 growth inhibition, KM12; conditions: Colon Cancer; note: test concentration or dose not given here
Procedure: as §1, §2

SR = assay: NCI60 growth inhibition, SR; conditions: Leukemia
Procedure: as §1, §2

UACC-62 = assay: NCI60 growth inhibition, UACC-62; conditions: Melanoma; note: test concentration or dose not given here
Procedure: as §1, §2

MOLT-4 = assay: NCI60 growth inhibition, MOLT-4; conditions: Leukemia
Procedure: as §1, §2

MDA-MB-231/ATCC = assay: NCI60 growth inhibition, MDA-MB-231/ATCC; conditions: Breast Cancer
Procedure: as §1, §2

U251 = assay: NCI60 growth inhibition, U251; conditions: CNS Cancer
Procedure: as §1, §2

COLO 205 = assay: NCI60 growth inhibition, COLO 205; conditions: Colon Cancer
Procedure: as §1, §2

PC-3 = assay: NCI60 growth inhibition, PC-3; conditions: Prostate Cancer
Procedure: as §1, §2

RPMI-8226 = assay: NCI60 growth inhibition, RPMI-8226; conditions: Leukemia
Procedure: as §1, §2

IGROV1 = assay: NCI60 growth inhibition, IGROV1; conditions: Ovarian Cancer
Procedure: as §1, §2

A498 = assay: NCI60 growth inhibition, A498; conditions: Renal Cancer; note: test concentration or dose not given here
Procedure: as §1, §2

SK-MEL-28 = assay: NCI60 growth inhibition, SK-MEL-28; conditions: Melanoma
Procedure: as §1, §2

A549/ATCC = assay: NCI60 growth inhibition, A549/ATCC; conditions: Non-Small Cell Lung Cancer
Procedure: as §1, §2

HCC-2998 = assay: NCI60 growth inhibition, HCC-2998; conditions: Colon Cancer
Procedure: as §1, §2

NCI-H460 = assay: NCI60 growth inhibition, NCI-H460; conditions: Non-Small Cell Lung Cancer
Procedure: as §1, §2

SN12C = assay: NCI60 growth inhibition, SN12C; conditions: Renal Cancer
Procedure: as §1, §2

CCRF-CEM = assay: NCI60 growth inhibition, CCRF-CEM; conditions: Leukemia
Procedure: as §1, §2

HCT-15 = assay: NCI60 growth inhibition, HCT-15; conditions: Colon Cancer; note: test concentration or dose not given here
Procedure: as §1, §2

HOP-92 = assay: NCI60 growth inhibition, HOP-92; conditions: Non-Small Cell Lung Cancer
Procedure: as §1, §2

HOP-62 = assay: NCI60 growth inhibition, HOP-62; conditions: Non-Small Cell Lung Cancer; note: test concentration or dose not given here
Procedure: as §1, §2

MDA-MB-468 = assay: NCI60 growth inhibition, MDA-MB-468; conditions: Breast Cancer; note: test concentration or dose not given here
Procedure: as §1, §2

OVCAR-3 = assay: NCI60 growth inhibition, OVCAR-3; conditions: Ovarian Cancer
Procedure: as §1, §2

SK-MEL-2 = assay: NCI60 growth inhibition, SK-MEL-2; conditions: Melanoma; note: test concentration or dose not given here
Procedure: as §1, §2

## O=C1c2cccnc2C(=O)c2nc3cc(N4CCN(C5CC5)CC4)ccc3nc21 [Compound 49, 9-(4-cyclopropylpiperazin-1-yl)pyrido[2,3-b]phenazine-5,12-dione]
HL-60(TB)
  Growth inhibition (% control) GIPRCNT: −43.09 % control
HS 578T
  Growth inhibition (% control) GIPRCNT: −36.5499 % control
NCI-H522
  Growth inhibition (% control) GIPRCNT: −50.54 % control
MDA-MB-435
  Growth inhibition (% control) GIPRCNT: −87.4148 % control
TK-10
  Growth inhibition (% control) GIPRCNT: 0.1224 % control
OVCAR-5
  Growth inhibition (% control) GIPRCNT: −82.2933 % control
KM12
  Growth inhibition (% control) GIPRCNT: 9.272 % control
SR
  Growth inhibition (% control) GIPRCNT: −10.03 % control
UACC-62
  Growth inhibition (% control) GIPRCNT: −98.5184 % control
MOLT-4
  Growth inhibition (% control) GIPRCNT: 26.2 % control
MDA-MB-231/ATCC
  Growth inhibition (% control) GIPRCNT: 15.11 % control
U251
  Growth inhibition (% control) GIPRCNT: −32.64 % control
COLO 205
  Growth inhibition (% control) GIPRCNT: −68.34 % control
PC-3
  Growth inhibition (% control) GIPRCNT: 11.58 % control
RPMI-8226
  Growth inhibition (% control) GIPRCNT: 25.33 % control
IGROV1
  Growth inhibition (% control) GIPRCNT: −13.7639 % control
A498
  Growth inhibition (% control) GIPRCNT: −88.1317 % control
SK-MEL-28
  Growth inhibition (% control) GIPRCNT: −76.8851 % control
A549/ATCC
  Growth inhibition (% control) GIPRCNT: −53.27 % control
HCC-2998
  Growth inhibition (% control) GIPRCNT: −80.83 % control
NCI-H460
  Growth inhibition (% control) GIPRCNT: −54.12 % control
SN12C
  Growth inhibition (% control) GIPRCNT: −94.7287 % control
CCRF-CEM
  Growth inhibition (% control) GIPRCNT: 26.17 % control
HCT-15
  Growth inhibition (% control) GIPRCNT: −58.81 % control
HOP-92
  Growth inhibition (% control) GIPRCNT: 62.46 % control
HOP-62
  Growth inhibition (% control) GIPRCNT: −56.64 % control
MDA-MB-468
  Growth inhibition (% control) GIPRCNT: −21.9933 % control
OVCAR-3
  Growth inhibition (% control) GIPRCNT: −1.5625 % control
SK-MEL-2
  Growth inhibition (% control) GIPRCNT: −16.262 % control
